Results taken from PubChem BioAssay AID1259407 (Chemical Carcinogenesis Research Information System (CCRIS), 2018).
Calls of active or inactive are those of the source. How the calls were made is not given here.

Test system: CCRIS mutagenicity, Ames/micronucleus/aberration tests
Assay: CCRIS mutagenicity studies
[1] = Test System: AMES SALMONELLA TYPHIMURIUM, Strain/Indicator: TA98, Metabolic Activation: NONE, Method: STANDARD PLATE
[2] = Test System: AMES SALMONELLA TYPHIMURIUM, Strain/Indicator: TA100, Metabolic Activation: NONE, Method: STANDARD PLATE

SMILES: CN1CCC(CN2c3ccccc3Sc3ccccc32)C1 (stereo not drawn)
- mutagenic call (End Point: IN VITRO CHROMOSOMAL ABERRATIONS, Test System: CHINESE HAMSTER OVARY CELLS, Metabolic Activation: NONE): inactive; negative
- mutagenic call (End Point: IN VITRO CHROMOSOMAL ABERRATIONS, Test System: CHINESE HAMSTER OVARY CELLS, Metabolic Activation: RAT, LIVER, S-9, AROCLOR 1254): inactive; negative
- mutagenic call (Test System: AMES SALMONELLA TYPHIMURIUM, Strain/Indicator: TA97, Metabolic Activation: HAMSTER, LIVER, S-9, AROCLOR 1254 (10 OR 30%), Method: PREINCUBATION): inactive; negative
- mutagenic call (Test System: AMES SALMONELLA TYPHIMURIUM, Strain/Indicator: TA97, Metabolic Activation: NONE, Method: PREINCUBATION): inactive; negative
- mutagenic call (Test System: AMES SALMONELLA TYPHIMURIUM, Strain/Indicator: TA97, Metabolic Activation: RAT, LIVER, S-9, AROCLOR 1254 (10 OR 30%), Method: PREINCUBATION): inactive; negative
- mutagenic call (Test System: AMES SALMONELLA TYPHIMURIUM, Strain/Indicator: TA98, Metabolic Activation: HAMSTER, LIVER, S-9, AROCLOR 1254 (10%), Method: PREINCUBATION): inactive; negative
- mutagenic call (Test System: AMES SALMONELLA TYPHIMURIUM, Strain/Indicator: TA98, Metabolic Activation: HAMSTER, LIVER, S-9, AROCLOR 1254 (30%), Method: PREINCUBATION): inactive; negative
- mutagenic call (Test System: AMES SALMONELLA TYPHIMURIUM, Strain/Indicator: TA98, Metabolic Activation: NONE, Method: PREINCUBATION): inactive; negative
- mutagenic call (Test System: AMES SALMONELLA TYPHIMURIUM, Strain/Indicator: TA98, Metabolic Activation: RAT, LIVER, S-9, AROCLOR 1254 (10%), Method: PREINCUBATION): inactive; negative
- mutagenic call (Test System: AMES SALMONELLA TYPHIMURIUM, Strain/Indicator: TA98, Metabolic Activation: RAT, LIVER, S-9, AROCLOR 1254 (30%), Method: PREINCUBATION): inactive; negative
- mutagenic call (Test System: AMES SALMONELLA TYPHIMURIUM, Strain/Indicator: TA100, Metabolic Activation: HAMSTER, LIVER, S-9, AROCLOR 1254 (10%), Method: PREINCUBATION): inactive; negative
- mutagenic call (Test System: AMES SALMONELLA TYPHIMURIUM, Strain/Indicator: TA100, Metabolic Activation: HAMSTER, LIVER, S-9, AROCLOR 1254 (30%), Method: PREINCUBATION): inactive; negative
- mutagenic call (Test System: AMES SALMONELLA TYPHIMURIUM, Strain/Indicator: TA100, Metabolic Activation: NONE, Method: PREINCUBATION): inactive; negative
- mutagenic call (Test System: AMES SALMONELLA TYPHIMURIUM, Strain/Indicator: TA100, Metabolic Activation: RAT, LIVER, S-9, AROCLOR 1254 (10%), Method: PREINCUBATION): inactive; negative
- mutagenic call (Test System: AMES SALMONELLA TYPHIMURIUM, Strain/Indicator: TA100, Metabolic Activation: RAT, LIVER, S-9, AROCLOR 1254 (30%), Method: PREINCUBATION): inactive; negative
- mutagenic call (Test System: AMES SALMONELLA TYPHIMURIUM, Strain/Indicator: TA1535, Metabolic Activation: HAMSTER, LIVER, S-9, AROCLOR 1254 (10%), Method: PREINCUBATION): inactive; negative
- mutagenic call (Test System: AMES SALMONELLA TYPHIMURIUM, Strain/Indicator: TA1535, Metabolic Activation: HAMSTER, LIVER, S-9, AROCLOR 1254 (30%), Method: PREINCUBATION): inactive; negative
- mutagenic call (Test System: AMES SALMONELLA TYPHIMURIUM, Strain/Indicator: TA1535, Metabolic Activation: NONE, Method: PREINCUBATION): inactive; negative
- mutagenic call (Test System: AMES SALMONELLA TYPHIMURIUM, Strain/Indicator: TA1535, Metabolic Activation: RAT, LIVER, S-9, AROCLOR 1254 (10%), Method: PREINCUBATION): inactive; negative
- mutagenic call (Test System: AMES SALMONELLA TYPHIMURIUM, Strain/Indicator: TA1535, Metabolic Activation: RAT, LIVER, S-9, AROCLOR 1254 (30%), Method: PREINCUBATION): inactive; negative
- mutagenic call (Test System: AMES SALMONELLA TYPHIMURIUM, Strain/Indicator: TA1537, Metabolic Activation: HAMSTER, LIVER, S-9, AROCLOR 1254 (10%), Method: PREINCUBATION): inactive; negative
- mutagenic call (Test System: AMES SALMONELLA TYPHIMURIUM, Strain/Indicator: TA1537, Metabolic Activation: NONE, Method: PREINCUBATION): inactive; negative
- mutagenic call (Test System: AMES SALMONELLA TYPHIMURIUM, Strain/Indicator: TA1537, Metabolic Activation: RAT, LIVER, S-9, AROCLOR 1254 (10%), Method: PREINCUBATION): inactive; negative

SMILES: O=C(O)c1ccccc1[O-].O=C(O)c1ccccc1[O-].O=C(O)c1ccccc1[O-].[Cr+3]
- mutagenic call (Test System: AMES SALMONELLA TYPHIMURIUM, Strain/Indicator: TA92, Metabolic Activation: NONE, Method: STANDARD PLATE): inactive; negative
- mutagenic call (Test System: AMES SALMONELLA TYPHIMURIUM, Strain/Indicator: TA94, Metabolic Activation: NONE, Method: STANDARD PLATE): inactive; negative
- mutagenic call [1]: inactive; negative
- mutagenic call [2]: inactive; negative

SMILES: C=C(Br)CBr
- mutagenic call (Test System: AMES SALMONELLA TYPHIMURIUM, Strain/Indicator: TA100, Metabolic Activation: RAT, LIVER, MICROSOMES, PHENOBARBITAL, NADPH COFACTORS, Method: STANDARD PLATE): active; positive
- mutagenic call (Test System: AMES SALMONELLA TYPHIMURIUM, Strain/Indicator: TA100, Metabolic Activation: RAT, LIVER, MICROSOMES, PHENOBARBITAL, Method: STANDARD PLATE): active; positive

SMILES: Nc1ccc2ccc3cc4ccccc4c4ccc1c2c34
- mutagenic call (Test System: AMES SALMONELLA TYPHIMURIUM, Strain/Indicator: TA98(1,8-DNP6), Metabolic Activation: NONE): active; positive
- mutagenic call (Test System: AMES SALMONELLA TYPHIMURIUM, Strain/Indicator: TA98(1,8-DNP6), Metabolic Activation: RAT, LIVER, S-9, AROCLOR 1254): active; positive
- mutagenic call (Test System: AMES SALMONELLA TYPHIMURIUM, Strain/Indicator: TA98(NR), Metabolic Activation: NONE): active; positive
- mutagenic call (Test System: AMES SALMONELLA TYPHIMURIUM, Strain/Indicator: TA98(NR), Metabolic Activation: RAT, LIVER, S-9, AROCLOR 1254): active; positive
- mutagenic call (Test System: AMES SALMONELLA TYPHIMURIUM, Strain/Indicator: TA98, Metabolic Activation: NONE): active; positive
- mutagenic call (Test System: AMES SALMONELLA TYPHIMURIUM, Strain/Indicator: TA98, Metabolic Activation: RAT, LIVER, S-9, AROCLOR 1254): active; positive

SMILES: CCc1cc(-c2ccccc2)ccc1N
- mutagenic call [1]: inactive; negative
- mutagenic call (Test System: AMES SALMONELLA TYPHIMURIUM, Strain/Indicator: TA98, Metabolic Activation: RAT LIVER S-9, AROCLOR, Method: STANDARD PLATE): active; positive
- mutagenic call [2]: active; positive
- mutagenic call (Test System: AMES SALMONELLA TYPHIMURIUM, Strain/Indicator: TA100, Metabolic Activation: RAT LIVER S-9, AROCLOR, Method: STANDARD PLATE): active; positive

SMILES: Cc1ncc([N+](=O)[O-])n1C
- mutagenic call (Test System: AMES SALMONELLA TYPHIMURIUM, Strain/Indicator: TA97, Metabolic Activation: NONE, Method: STANDARD PLATE): active; positive
- mutagenic call (Test System: AMES SALMONELLA TYPHIMURIUM, Strain/Indicator: TA97, Metabolic Activation: RAT, LIVER, S-9, AROCLOR 1254, Method: STANDARD PLATE): active; positive
- mutagenic call [1]: active; positive
- mutagenic call (Test System: AMES SALMONELLA TYPHIMURIUM, Strain/Indicator: TA98, Metabolic Activation: RAT, LIVER, S-9, AROCLOR 1254, Method: STANDARD PLATE): active; positive
- mutagenic call [2]: active; positive
- mutagenic call (Test System: AMES SALMONELLA TYPHIMURIUM, Strain/Indicator: TA100, Metabolic Activation: RAT, LIVER, S-9, AROCLOR 1254, Method: STANDARD PLATE): active; positive
- mutagenic call (Test System: AMES SALMONELLA TYPHIMURIUM, Strain/Indicator: TA102, Metabolic Activation: NONE, Method: STANDARD PLATE): active; positive
- mutagenic call (Test System: AMES SALMONELLA TYPHIMURIUM, Strain/Indicator: TA102, Metabolic Activation: RAT, LIVER, S-9, AROCLOR 1254, Method: STANDARD PLATE): active; positive

SMILES: CC(=O)Nc1ccc(Oc2ccc(NC(C)=O)cc2)cc1
- mutagenic call [1]: inactive; negative
- mutagenic call (Test System: AMES SALMONELLA TYPHIMURIUM, Strain/Indicator: TA98, Metabolic Activation: RAT, LIVER, S-9, PCB, Method: STANDARD PLATE): inactive; negative
- mutagenic call [2]: inactive; negative
- mutagenic call (Test System: AMES SALMONELLA TYPHIMURIUM, Strain/Indicator: TA100, Metabolic Activation: RAT, LIVER, S-9, PCB, Method: STANDARD PLATE): inactive; negative

SMILES: CN(N=O)C(=O)N[C@@H]1O[C@H](CO)[C@H](O)[C@H](O)[C@H]1O
- mutagenic call (Test System: CHINESE HAMSTER V-79, Strain/Indicator: V-79/8-AZAGUANINE, Metabolic Activation: NONE, Method: STANDARD PLATE): active; positive

SMILES: c1ccc2c(c1)-c1cc3c(cc1C1NC21)-c1ccccc1C1NC31 (stereo not drawn)
- mutagenic call [2]: active; positive
